Source: patent publication US9278982B2, “Targeting human thymidylate kinase induces DNA repair toxicity in malignant tumor cells” (NATIONAL YANG-MING UNIVERSITY, priority 2010, dated 2016)
“Also recorded” adds a separate entry of the source.

Tests used:
[1] = system: H184B5F5/M10, MCF-10A, MCF-7 and HCT-116 p53−/− cells; experiment: Colony assay of cell viability, YMU1 versus FdUrd; conditions: various concentrations thrice a week, 14 days
Method: (B) H184B5F5/M10 cells were seeded onto 100 mm-dish at 5,000 cells/dish. MCF-10A, MCF-7 and HCT-116 p53^−/− cells were seeded onto 6 well plate at 600 cells/well. Following overnight culture, cells were treated with various concentration of YMU1 or FdUrd thrice a week. After 14 days colonies were fixed, stained by crystal violet.
We also compared the effect of YMU1 and FdUrd on cell viability of non-tumorigenic mammary cycling cells, H184B5F5/M10 and MCF-10A and tumor lines, MCF-7 and HCT-116 p53^−/− cells.
After 14 days, colonies were fixed and stained by crystal violet and counted.

HCT-116 p53−/− cells = experiment: γH2AX foci staining for induction of DNA damage (genomic toxicity); assay type: cell-based, human; conditions: YMU1 2 μM 2 days; FdUrd 2 μM 1 day
Text: FIG. 14. Effect of YMU1 on genomic toxicity and DNA repair. […] After overnight, cells were exposed to doxorubicin and recovered. […]
TMPK and TS are key enzymes in dTTP synthesis and TS has been a major chemotherapy target (Garg et al., 2010). Inhibition of TS by FdUrd causes genome toxicity (Longley et al., 2003). Given the shared role of TMPK and TS in dTTP synthesis, we next compared the effects of blocking TMPK and TS by either shRNA interference or inhibitor treatment on the induction of DNA damage.
For γH2AX, Rad51 and XRCC1 staining, cells were fixed with 4% paraformaldehyde for 30 min at room temperature and were incubated with TBS (50 mM Tris-HCl, pH 7.4, 150 mM NaCl) plus 0.3% Triton X-100 for 5 min. The coverslips were blocked with MAXblock™ (Active Motif) for 1 h at 37° C., followed by staining with primary antibodies: anti-γH2AX monoclonal antibody (1:1000), anti-Rad51 polyclonal antibody (1:500) or anti-XRCC1 monoclonal antibody (1:500) overnight at 4° C. After extensive washing, cells were stained with secondary antibodies and Hoechst 33342 for 1 h at room temperature. After mounting, cells were analyzed and photographed with a Carl Zeiss fluorescence microscope equipped with AxioCam digital camera and Axio Vision Rel. 4.8 imaging software.

TMPK [2] = molecular target: T1, TMPK (Homo sapiens, UniProt P23919); experiment: In vitro TMPK inhibitory activity of TMPK inhibitor derivatives (inhibition yield); assay type: biochemical; parameters: GST (N, cleaved yes); made in house; host or cells: E. coli JM109 (pGEX-2T-hTMPK), inferred; conditions: 2 μM; n=3 or 6; read-out: inhibition yield, normalized to compound 21 (YMU1) = 100%
T1 sequence (P23919 1-212): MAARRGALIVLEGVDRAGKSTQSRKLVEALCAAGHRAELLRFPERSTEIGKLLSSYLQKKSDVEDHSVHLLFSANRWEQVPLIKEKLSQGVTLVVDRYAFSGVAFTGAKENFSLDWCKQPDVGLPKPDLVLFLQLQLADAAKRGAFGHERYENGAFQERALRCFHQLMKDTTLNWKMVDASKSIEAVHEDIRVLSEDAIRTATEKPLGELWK
Text: Chemical structures of the different TMPK inhibitor derivatives tested for in vitro TMPK inhibitory activity and in vivo doxorubicin sensitization activity (in MDA-MB231 cells) are depicted below.

panel of cell lines = experiment: Doxorubicin sensitization, MTS viability assay, summary over the panel of cell lines; assay type: cell-based, human; conditions: all these cell lines; 72 h pre-treatment
Method: (§1) FIG. 16. In vitro and in vivo effect of YMU1 on doxorubicin sensitization. (A) A panel of cell lines were pre-treated with vehicle, YMU1 (compound 21), D6 (ethyl 4-(2-chloroacetyl)piperazine-1-carboxylate) or D7 (compound 28) for 3 days and were exposed to different concentration of doxorubicin for 4 h. […] The enhancement (fold) of doxorubicin sensitivity in each cell line was calculated. Data represent mean±s.d., n=3; each experiment was quadruplex. Inset indicates the IC50 value of doxorubicin in various cell lines. […] Following overnight culture, cells were refreshed with growth medium. After 14 days of culture, colonies were fixed, stained by crystal violet and counted. (C) HCT-116 p53^−/− cells were subcutaneously implanted in the right flank of Balb/c nude mice (each experimental group n=8). Arrow indicated the time of stopping drug treatment. The tumor volume was estimated as described in Methods of the Invention section. (D) After 2 weeks recovered from treatment, mice were sacrificed for tumor weight measurement. Data represent mean±s.e.m; **, P<0.01 by a two-tailed Student's t-test. (E) Ki 67 proliferation marker staining of tumor shown in left panel. Scale bar, 50 μm. (F) Model of doxorubicin sensitization by YMU1 in malignant cancer cells. Both R2/R1 and TMPK are recruited to the site of doxorubicin-induced double-strand breaks, where dATP, dGTP, dCTP, dTTP and dUTP are site-specific synthesized. Inhibition of TMPK decreases dTTP formation at DNA damage sites, causing futile DNA repair due to dUTP incorporation.
(§2) Next, various human cancer cell lines were treated with YMU1, D6 or D7 for 72 h to test the potential of TMPK inhibitor in doxorubicin sensitization. After exposure to different concentration of doxorubicin for 4 h, cells were refreshed for viability analysis after 2 days and the IC50 value for doxorubicin in each of the cell lines was determined (FIG. 16A and Table 2).
The ability of YMU1 to sensitize non-tumorigenic mammary cycling H184B5F5/M10, MCF10A, primary human mammary epithelial (HMEC) and primary renal epithelial (HREC) cells and IMR-90 embryonic lung fibroblasts to doxorubicin was much weaker.
(§3) Cells plated into a 96-well plate (10^3 cells/well) were treated and cell viability was measured by MTS assay (Promega) (Cory et al., 1991). An annexin V-fluorescein isothiocyanate (FITC) apoptosis kit (Calbiochem) was used to detect apoptosis. The cell cycle analysis was performed by staining cells with propidium iodide (PI) for fluorescence-activated cell sorter (FACS) analysis with CellQuest software.

TMPK [3] = molecular target: T1, TMPK; experiment: Luciferase-coupled TMPK assay; assay type: biochemical; parameters: GST (N, cleaved yes); made in house; host or cells: E. coli JM109 (pGEX-2T-hTMPK); conditions: purified hTMPK protein (0.5 μg), 10 min preincubation; listed as D7
Method: FIG. 12. Identification of a novel hTMPK inhibitor. (A) A screen of TMPK inhibitor by luciferase-coupled assay. (B) The chemical structures of YMU1 (compound 21) and related molecules. (C) Effect of YMU1 and derivative compounds on hTMPK inhibition using purified hTMPK protein (0.5 μg) with 10 min preincubation prior to reaction using luciferase-coupled TMPK analysis. (D) Effect of YMU1 on activity of purified TMPK (0.5 μg) and GST-hTK1 protein (5 μg) with 10 min preincubation prior to reaction. Data represent mean±s.d. (n=4) (E) Molecular models of the TMPK-YMU1 complex. Left panel: TMPK/ATP/Mg+2; right panel: TMPK/YMU1. The TMPK is represented in surface electrostatic potential (upper) and structural ribbon (lower). ATP and YMU1 are shown in green and blue stick, respectively, with colored atom (O, red; S, yellow; P, orange). TMP is shown in white backbone and Mg+2 in purple. Arrow indicates the position of Asp15.
Based on the functional requirement of TMPK in DNA repair specifically in tumor cells with elevated level of R2 expression, we searched for inhibitors of hTMPK that might be useful in selectively sensitizing tumor cells to doxorubicin. […] The synthetic procedure and structural elucidation of YMU1 (compound 21) are described in the Methods of the Invention section of the application.
The TMPK reaction was started by adding purified hTMPK in 50 μl of TMPK assay buffer (100 mM Tris-HCl, pH 7.5, 100 mM KCl, 10 mM MgCl2, 50 μM ATP and 100 μM dTMP) in 96 wells plate at 25° C. for 10 min and terminated by adding 200 μl of DTNB (100 μM), followed by transferring 10 μl of reaction solution to a white 96-wellplate containing 90 μl of luciferase assay buffer (50 mM Glycine, 0.5 mM EDTA and 5 mM EDTA, pH 7.0, 0.1 μg of luciferase, 50 μM luciferin and 0.1% BSA). The luminescence was measured with a luminescence counter (Packard).

CL-1-0 = experiment: Doxorubicin sensitization, MTS viability assay; assay type: cell-based, human; conditions: Homo sapiens, CL1-0, vehicle 72 h, doxorubicin 4 h, viability after 2 days, read-out: IC50 of doxorubicin treatment, Vehicle
Method: as §1, §2, §3

HREC = experiment: Doxorubicin sensitization, MTS viability assay; assay type: cell-based, human; conditions: Homo sapiens, vehicle 72 h, doxorubicin 4 h, viability after 2 days, read-out: IC50 of doxorubicin treatment, Vehicle
Method: as §1, §2, §3

HT-29 = experiment: Doxorubicin sensitization, MTS viability assay; assay type: cell-based, human; conditions: Homo sapiens, vehicle 72 h, doxorubicin 4 h, viability after 2 days, read-out: IC50 of doxorubicin treatment, Vehicle
Method: as §1, §2, §3

H1299 = experiment: Doxorubicin sensitization, MTS viability assay; assay type: cell-based, human; conditions: Homo sapiens, NCI-H1299, vehicle 72 h, doxorubicin 4 h, viability after 2 days, read-out: IC50 of doxorubicin treatment, Vehicle
Method: as §1, §2, §3

Capan1 = experiment: Doxorubicin sensitization, MTS viability assay; assay type: cell-based, human; conditions: Homo sapiens, CAPAN-1, vehicle 72 h, doxorubicin 4 h, viability after 2 days, read-out: IC50 of doxorubicin treatment, Vehicle
Method: as §1, §2, §3

HMEC = experiment: Doxorubicin sensitization, MTS viability assay; assay type: cell-based, human; conditions: Homo sapiens, vehicle 72 h, doxorubicin 4 h, viability after 2 days, read-out: IC50 of doxorubicin treatment, Vehicle
Method: as §1, §2, §3

IMR-90 = experiment: Doxorubicin sensitization, MTS viability assay; assay type: cell-based, human; conditions: Homo sapiens, vehicle 72 h, doxorubicin 4 h, viability after 2 days, read-out: IC50 of doxorubicin treatment, Vehicle
Method: as §1, §2, §3

U2OS = experiment: Doxorubicin sensitization, MTS viability assay; assay type: cell-based, human; conditions: Homo sapiens, vehicle 72 h, doxorubicin 4 h, viability after 2 days, read-out: IC50 of doxorubicin treatment, Vehicle
Method: as §1, §2, §3

H184B5F5/M10 = experiment: Doxorubicin sensitization, MTS viability assay; assay type: cell-based, human; conditions: Homo sapiens, vehicle 72 h, doxorubicin 4 h, viability after 2 days, read-out: IC50 of doxorubicin treatment, Vehicle
Method: as §1, §2, §3

MDA-MB468 = experiment: Doxorubicin sensitization, MTS viability assay; assay type: cell-based, human; conditions: Homo sapiens, MDA-MB-468, vehicle 72 h, doxorubicin 4 h, viability after 2 days, read-out: IC50 of doxorubicin treatment, Vehicle
Method: as §1, §2, §3

MCF-10A = experiment: Doxorubicin sensitization, MTS viability assay; assay type: cell-based, human; conditions: Homo sapiens, vehicle 72 h, doxorubicin 4 h, viability after 2 days, read-out: IC50 of doxorubicin treatment, Vehicle
Method: as §1, §2, §3

HCT-116p53−/− = experiment: Doxorubicin sensitization, MTS viability assay; assay type: cell-based, human; conditions: Homo sapiens, vehicle 72 h, doxorubicin 4 h, viability after 2 days, read-out: IC50 of doxorubicin treatment, Vehicle
Method: as §1, §2, §3

HCC1037 = experiment: Doxorubicin sensitization, MTS viability assay; assay type: cell-based, human; conditions: Homo sapiens, vehicle 72 h, doxorubicin 4 h, viability after 2 days, read-out: IC50 of doxorubicin treatment, Vehicle
Method: as §1, §2, §3

SaoS2 = experiment: Doxorubicin sensitization, MTS viability assay; assay type: cell-based, human; conditions: Homo sapiens, SAOS-2, vehicle 72 h, doxorubicin 4 h, viability after 2 days, read-out: IC50 of doxorubicin treatment, Vehicle
Method: as §1, §2, §3

HCT-116p53+/+ = experiment: Doxorubicin sensitization, MTS viability assay; assay type: cell-based, human; conditions: Homo sapiens, vehicle 72 h, doxorubicin 4 h, viability after 2 days, read-out: IC50 of doxorubicin treatment, Vehicle
Method: as §1, §2, §3

In the case of `O=c1[nH]c(=O)n([C@H]2C[C@H](O)[C@@H](CO)O2)cc1F` [FdUrd, 5-fluoro-2′deoxyuridine], the “death of cells in colony assay” value [1] is reported as “caused death of these cells” and the “induction of DNA damage (γH2AX staining)” value (HCT-116 p53−/− cells) is reported as “induced severe DNA damage”.

In the case of `CCOC(=O)N1CCN(C(=O)COc2nsc3nc(C)cc(C)c23)CC1` [compound 28, Ethyl 4-(2-(4,6-dimethylisothiazolo[5,4-b]pyridin-3-yloxy)acetyl)piperazine-1-carboxylate], the inhibition at 2 µM (TMPK [2]) is reported as 14.7%, the melting point is reported as 88 to 90 °C and the doxorubicin sensitization effect (panel of cell lines) is reported as “had no doxorubicin sensitization effect”. For the same compound, the “inhibition against hTMPK” value (TMPK [3]) was “Neither D6 (as the piperazine fragment of YMU1) nor D7 (as the O-alkylation isomer of YMU1) showed any inhibition; also recorded: do not inhibit TMPK”.

Compound `COc1cccc2c1C(=O)c1c(O)c3c(c(O)c1C2=O)C[C@@](O)(C(=O)CO)C[C@@H]3O[C@H]1C[C@H](N)[C@H](O)[C@H](C)O1` [doxorubicin, reference compound] has an IC50 (CL-1-0) of 4.9 ± 0.2 µM, an IC50 (HREC) of 22.1 ± 1.18 µM and an IC50 (HT-29) of 12.1 ± 1.64 µM. The IC50 (H1299) was 7.19 ± 0.77 µM, the IC50 (Capan1) was 1130 ± 20 nM and the IC50 (HMEC) was 23.6 ± 1.23 µM. For the same compound, the IC50 (IMR-90) was 14.2 ± 3.21 µM, the IC50 (U2OS) was 4.58 ± 0.14 µM and the IC50 (H184B5F5/M10) was 4.15 ± 0.06 µM. It also gave an IC50 (MDA-MB468) of 250 ± 80 nM, an IC50 (MCF-10A) of 5.22 ± 0.39 µM and an IC50 (HCT-116p53−/−) of 4.1 ± 0.01 µM. The IC50 (HCC1037) was 5.52 ± 0.39 µM, the IC50 (SaoS2) was 7.83 ± 0.02 µM and the IC50 (HCT-116p53+/+) was 2660 ± 490 nM.
